Measured values as given in US11376232B2, “Vidofludimus for use in the treatment or prevention of viral diseases” (Immunic AG, priority 2020, dated 2022).
Where “and” joins values, the source holds several entries; their conditions need not be identical. Identical values can stand only once. Counter-ions that a name gives are not always drawn. Like-named read-outs stand apart in the source and are kept apart here.

Tests used:
[1] = target: mDHODH (Mus musculus, UniProt O35435); test: mDHODH inhibition, in vitro protein; type: biochemical
Sequence of mDHODH (O35435 whole entry): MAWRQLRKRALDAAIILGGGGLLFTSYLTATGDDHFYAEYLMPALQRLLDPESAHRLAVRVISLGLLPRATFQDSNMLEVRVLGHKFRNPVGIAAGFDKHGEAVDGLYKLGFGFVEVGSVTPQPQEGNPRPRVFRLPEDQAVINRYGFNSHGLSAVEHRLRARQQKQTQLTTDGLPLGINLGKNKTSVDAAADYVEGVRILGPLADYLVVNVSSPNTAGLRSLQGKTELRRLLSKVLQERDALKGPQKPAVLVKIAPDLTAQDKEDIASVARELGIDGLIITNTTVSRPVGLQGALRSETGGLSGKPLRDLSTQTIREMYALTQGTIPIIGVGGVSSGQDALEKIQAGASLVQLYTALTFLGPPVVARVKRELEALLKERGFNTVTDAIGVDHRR

[2] = test system: SARS-CoV-2; test: SARS-CoV-2 CPE inhibition (neutral red) in Vero 76 cells; type: cell-based; conditions: Severe acute respiratory syndrome coronavirus 2, Vero 76, 120 h, read-out: EC50: 50% effective antiviral concentration
[3] = Cytotoxicity in uninfected Vero 76 cells (neutral red); type: cell-based; conditions: African green monkey, Vero 76, day 5, neutral red, read-out: CC50: 50% cytotoxic concentration of compound without virus added
[4] = test system: SARS-CoV-2 USA_WA1/2020; test: microbe, parasite or virus in culture; type: cell-based; conditions: Severe acute respiratory syndrome coronavirus 2, Vero 76
[5] = test system: SARS-CoV-2 MUC-IMB-1; test: microbe, parasite or virus in culture; type: cell-based; conditions: Severe acute respiratory syndrome coronavirus 2, Vero 76
[6] = test system: SARS-CoV-2 MUC-IMB-1; test: microbe, parasite or virus in culture; type: cell-based; conditions: Severe acute respiratory syndrome coronavirus 2, Vero
[7] = test system: SARS-CoV-2 MUC-IMB-1; test: microbe, parasite or virus in culture; type: cell-based; conditions: Severe acute respiratory syndrome coronavirus 2, Caco-2
[8] = test system: SARS-CoV-2; type: cell-based; conditions: CaCo-2 supernatants on Vero E6 monolayers, treatment setting
[9] = test system: SARS-CoV-2; type: cell-based
[10] = test system: hyperactivated immune cells; test: T-cell mediated cytokine production of hyperactivated immune cells; type: cell-based
[11] = Clinical tolerability of repeated daily dosing; type: in vivo, human; conditions: clinical trials
[12] = test system: SARS-CoV-2 infection (COVID-19)
[13] = human, in vivo
[14] = test system: HIV-191US005 (CCR5-tropic, Subtype B); conditions: cited from earlier work
[15] = test system: HCV sub genomic replicon of genotype 1b; conditions: cited from earlier work
[16] = test system: Lassa fever Arena virus; conditions: Plaque reduction, virus protein expression; A549 and Vero models; cited from earlier work
[17] = in vitro; conditions: African green monkey
[18] = in vitro; conditions: African green monkey; remark: listed apart in the source
[19] = in vitro; conditions: human
[20] = Cytotoxicity on fibroblasts
[21] = Cytotoxicity on HepG2 cells; conditions: human
[22] = Cytotoxicity in Vero 76 cells (Table 4); conditions: African green monkey
[23] = test system: Vero 76; test: Cytotoxicity in Vero 76 cells (Table 4); conditions: Vero 76, 3 days post infection
[24] = test system: SARS-CoV-2 infection (COVID-19); test: Phase 2 placebo-controlled trial in hospitalized patients with moderate COVID-19; conditions: human, in vivo
[25] = in vivo; cited from earlier work
[26] = test system: Human T-cells; test: Proliferation assay of human T-cells (PHA-stimulated PBMCs, BrdU); type: cell-based; conditions: T-cell, PHA 20 μg/ml, 48 hours, BrdU ELISA
Experimental: Human peripheral blood mononuclear cells (PBMCs) were obtained from healthy volunteers and transferred to RPMI1640 cell culture medium containing 10% dialyzed fetal calf serum. 80.000 cells per well were pipetted into a 96-well plate and phytohemagglutinin (PHA) was added in phosphate buffered saline to a final concentration of 20 μg/ml to stimulate T-cell proliferation. Vidofludimus was added in dimethyl sulfoxide (DMSO, final concentration: 0.1 vol %) to final concentrations ranging from 20 nM to 50 μM. After incubation for 48 hours, cell proliferation was quantified using the “cell proliferation ELISA BrdU” (Roche) according to the manufacturer's instructions. Half maximal inhibition (IC50) was calculated using a 4-parameter sigmoidal curve fit.

[27] = target: EGFR (Homo sapiens, UniProt P00533); test: Off-target activity on EGFR; conditions: in contrast to leflunomide and teriflunomide
Sequence of EGFR (P00533 25-1210, species assumed): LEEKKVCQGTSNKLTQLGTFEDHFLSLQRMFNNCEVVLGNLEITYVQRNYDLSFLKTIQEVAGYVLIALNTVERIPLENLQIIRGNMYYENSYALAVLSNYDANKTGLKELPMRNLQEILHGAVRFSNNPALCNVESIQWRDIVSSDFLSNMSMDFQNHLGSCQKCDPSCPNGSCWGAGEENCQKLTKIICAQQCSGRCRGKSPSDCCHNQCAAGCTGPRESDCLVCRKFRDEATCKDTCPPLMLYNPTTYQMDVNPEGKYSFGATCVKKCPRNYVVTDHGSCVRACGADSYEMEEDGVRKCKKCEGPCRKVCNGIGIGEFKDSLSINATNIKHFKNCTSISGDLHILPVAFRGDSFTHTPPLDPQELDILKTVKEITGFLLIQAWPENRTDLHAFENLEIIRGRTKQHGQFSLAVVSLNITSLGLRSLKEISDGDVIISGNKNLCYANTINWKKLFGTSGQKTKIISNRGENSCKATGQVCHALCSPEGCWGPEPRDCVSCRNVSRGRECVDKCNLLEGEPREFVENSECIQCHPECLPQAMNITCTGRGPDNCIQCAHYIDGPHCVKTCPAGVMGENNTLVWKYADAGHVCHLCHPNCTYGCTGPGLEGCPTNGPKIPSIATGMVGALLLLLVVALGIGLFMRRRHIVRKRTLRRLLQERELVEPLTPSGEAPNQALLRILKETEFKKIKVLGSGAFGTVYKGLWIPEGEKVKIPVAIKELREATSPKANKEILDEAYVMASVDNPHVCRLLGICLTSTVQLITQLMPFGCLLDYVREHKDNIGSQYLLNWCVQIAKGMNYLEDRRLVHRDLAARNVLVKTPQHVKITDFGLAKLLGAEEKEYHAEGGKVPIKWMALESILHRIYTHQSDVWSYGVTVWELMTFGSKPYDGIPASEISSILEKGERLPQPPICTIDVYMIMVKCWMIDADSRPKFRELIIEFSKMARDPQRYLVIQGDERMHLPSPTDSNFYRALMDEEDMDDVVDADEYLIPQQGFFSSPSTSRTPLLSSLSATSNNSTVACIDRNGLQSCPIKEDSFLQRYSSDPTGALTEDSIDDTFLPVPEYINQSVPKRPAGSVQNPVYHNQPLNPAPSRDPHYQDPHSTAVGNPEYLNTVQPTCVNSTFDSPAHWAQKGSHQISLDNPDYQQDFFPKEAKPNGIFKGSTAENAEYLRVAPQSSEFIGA

[28] = target: T1, Auroroa-A kinases (Homo sapiens, UniProt O14965); test: Off-target activity on Aurora-A kinase; conditions: in contrast to leflunomide and teriflunomide
T1 sequence (O14965 1-403): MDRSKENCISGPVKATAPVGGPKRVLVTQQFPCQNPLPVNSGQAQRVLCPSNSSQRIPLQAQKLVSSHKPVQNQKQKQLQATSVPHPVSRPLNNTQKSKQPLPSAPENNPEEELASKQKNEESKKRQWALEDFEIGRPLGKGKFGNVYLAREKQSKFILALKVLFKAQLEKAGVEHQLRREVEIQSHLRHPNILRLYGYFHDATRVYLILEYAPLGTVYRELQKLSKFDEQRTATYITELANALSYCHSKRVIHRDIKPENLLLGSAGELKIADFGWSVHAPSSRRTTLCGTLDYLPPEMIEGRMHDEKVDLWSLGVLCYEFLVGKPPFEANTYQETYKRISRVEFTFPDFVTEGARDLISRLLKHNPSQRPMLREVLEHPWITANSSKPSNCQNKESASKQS

[29] = test system: bone marrow; test: Animal studies, effects on bone marrow; type: in vivo; conditions: animals treated with large doses
[30] = human, in vivo; remark: listed apart in the source

In the case of `COc1cccc(-c2ccc(NC(=O)C3=C(C(=O)O)CCC3)c(F)c2)c1` [IMU-838, 1-cyclopentene-1-carboxylic acid, 2-(((3-fluoro-3′-methoxy(1,1′-biphenyl)-4-yl)amino)carbonyl)-, calcium salt (2:1)], the IC50 [1] is reported as 10 µM, the EC50 [2] is reported as 6.1 µM and the CC50 at 5 days [3] is reported as 7.9 µM. It also gave an EC90 [4] of 6.2 ± 1.9 µM, an EC50 [5] of 10 µM and an EC50 [6] of 6.8 µM. For the same compound, the EC50 [7] was 7.5 to 15 µM, the EC90 [7] was 15 to 30 µM and the “reduction of viral plaques” value [8] was 58 fold. It also gave a Virus titer ([9]; IMU-838 1 μM alone) of 5.7 CCID50/ml, a Virus titer ([9]; IMU-838 5 μM alone) of 5.7 CCID50/ml and a Virus titer ([9]; IMU-838 10 μM alone) of 4.5 CCID50/ml. The “reduction of virus titer” value ([9]; all other concentrations (5, 1 μM), alone) was “did not reduce virus titer”, the “T-cell mediated cytokine production” value [10] was “able to block” and the “tolerated repeated daily dosing” value [11] was “up to 50 mg”. The “COVID-19 related adverse events with increased intensity” value ([12]; IMU-838 treated patients) was 7.1%, the “reduction of C-reactive protein (CRP) vs placebo” value ([12]; blood) was “more effective reduction” and the “proportion of patients reaching clinical recovery” value ([12]; day 7, FAS, 2×22.5 mg + standard-of-care) was 18.5%. For the same compound, the “proportion of patients reaching clinical improvement (as assessed by the investigators)” value ([12]; day 14, FAS) was 42.7%, the “anti-viral effect by viral titers” value ([12]; day 14 and day 28) was “anti-viral effect of IMU-838 on SARS-CoV-2 was observed” and the “proportion of patients reaching clinical improvement (as assessed by the investigators)” value ([12]; day 28, FAS) was 90.9%. The “proportion of patients reaching clinical recovery” value ([12]; day 28, FAS) was 71.3%, the “patients reaching WHO score improvement by two points” value ([12]; elderly patients (65 years or older), day 14, mFAS) was 36.4% and the “acceleration of 75% probability to reach clinical improvement (centrally calculated) vs placebo” value ([12]; human, in vivo) was 2.9 days. The “acceleration of 75% probability to reach clinical improvement (investigator assessment) vs placebo” value ([12]; human, in vivo) was 3.8 days and 4.8 days, the “reduction of D-dimer vs placebo” value ([12]; human, in vivo) was “more effective reduction” and the “shortening of third patient quartile for duration of hospitalization vs placebo” value ([12]; human, in vivo) was 3.4 days. The “time to clinical improvement vs placebo” value ([12]; mFAS) was “shorter”, the “clinical improvement (centrally calculated) when used early” value ([12]; within the first 8 days after onset of symptoms, mFAS) was “observed to be better” and the “plasma levels achieved in the blood of treated patients” value [13] was 10 to 30 µM. The IC50 ([14]; RT (reverse transcriptase)) was 2.2 µM, the EC50 ([14]; human PBMCs, reverse transcriptase activity and p24, read-out: median effective dose (ED50) HIV) was about 2 µM and the IC50 ([14]; p24) was 2 µM. For the same compound, the EC50 ([15]; Huh7 cells, Luc activity readout, read-out: median ED50 HCV replicon) was 4.6 µM, the IC50 ([15]; Replicon, luciferase) was 4.6 µM and the IC50 [16] was 2.8 µM. It also gave a CC50 [17] of 88 µM, a CC50 [18] of over 100 µM and a CC50 [19] of over 60 µM. For the same compound, the CC90 [19] was over 60 µM, the IC50 [20] was over 30 µM and the IC50 [21] was over 50 µM. The CC90 at 3 days [22] was over 100 µM, the “drug concentrations with no cytotoxicity observed” value [23] was “up to 100 μM” and the “hematological effects of COVID19” value [24] was “did not intensify”. The “rate of infections and infestations and rate of liver events vs placebo” value [24] was “did not increase” and the “rate of serious adverse events and adverse events leading to treatment discontinuation vs placebo” value [24] was “not increased”.

With `CCC(CC)COC(=O)[C@H](C)N[P@](=O)(OC[C@H]1O[C@@](C#N)(c2ccc3c(N)ncnn23)[C@H](O)[C@@H]1O)Oc1ccccc1` [Remdesivir, remdesivir, reference compound] the Virus titer ([9]; remdesivir 1 μM alone) was 5.0 CCID50/ml, the Virus titer ([9]; remdesivir 5 μM alone) was 1.7 CCID50/ml and the Virus titer ([9]; remdesivir 10 μM alone) was under 0.67 CCID50/ml.

In the case of `Cc1oncc1C(=O)Nc1ccc(C(F)(F)F)cc1` [leflunomide], the blood plasma half-life [25] is given as 384 to 456 h and the “dosing time to achieve therapeutic trough levels” value [25] is given as “up to 2 months”.

In the case of `COc1cccc(-c2ccc(NC(=O)C3=C(C(=O)O)CCC3)c(F)c2)c1` [Vidofludimus, 2-((3-fluoro-3′-methoxy-[1,1′-biphenyl]-4-yl)carbamoyl)cyclopent-1-enecarboxylic acid], the IC50 [26] is reported as 4.1 µM, the “off-target activity on EGFR” value [27] is reported as “does not hit” and the “off-target activity on Aurora-A kinases” value [28] is reported as “does not hit”. For the same compound, the “effects on bone marrow” value [29] was “lack detrimental effects on bone marrow” and the blood plasma half-life [30] was 30 h.
